Assays:
Type in all cases: ADME, organism-based
Conditions in all cases: in vivo
[1] = Drug level in Sprague-Dawley rat feces treated with 3FDT at 40 mg/kg, iv administered as single dose after 24 hrs by HPLC-TIC chromatography
[2] = Drug level in Sprague-Dawley rat urine treated with 3FDT at 40 mg/kg, iv administered as single dose after 24 hrs by HPLC-TIC chromatography
Plasma = test: Drug level in Sprague-Dawley rat plasma treated with 3FDT at 40 mg/kg, iv administered as single dose after 4 to 24 hrs by HPLC-TIC chromatography

Measured: Drug metabolism

CC(=O)O[C@@]12CO[C@@H]1C[C@@H](O)[C@@]1(C)C(=O)[C@H](O)C3=C(C)[C@@H](OC(=O)[C@H](O)[C@@H](NC(=O)OC(C)(C)C(F)(F)F)c4ccccc4)C[C@@](O)([C@@H](OC(=O)c4ccccc4)C12)C3(C)C (stereo partly drawn)
metabolite_detected: all assays above
